Assay results: patent US20240208992A1, “MACROCYCLES AS CFTR MODULATORS” (Idorsia Pharmaceuticals Ltd, priority 2021, published 2024)

Target: human F508del-CFTR (Homo sapiens, UniProt P13569, DEL508-508)
Experiment: F508del-CFTR cell surface expression (corrector activity), DiscoveRx ß-galactosidase complementation chemiluminescence assay in recombinant U2OS cell line;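 also: U2OS cells co-expressing ProLink-tagged F508del-CFTR and a membrane-anchored enzyme acceptor, where more surface CFTR restores β-galactosidase activity measured by chemiluminescence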
Settings: for EC50: EC50, F508del-CFTR cell surface expression; for Emax: U2OS
[1] = U2OS cell line, 16h compound incubation, geomean values
[2] = in relation to the Emax of the corrector lumacaftor (=100%), U2OS cell line, 16h compound incubation, arithmetic mean values
[3] = U2OS cells, 16h compound incubation, geomean values
[4] = in relation to Emax of corrector lumacaftor (=100%), arithmetic mean values
[5] = U2OS cells, 16h compound incubation, geomean of several measurements
[6] = in relation to the Emax of the corrector lumacaftor (=100%), U2OS cells, 16h compound incubation, arithmetic mean

Sequence of human F508del-CFTR (P13569 with tags, fused parts or gaps DEL508-508): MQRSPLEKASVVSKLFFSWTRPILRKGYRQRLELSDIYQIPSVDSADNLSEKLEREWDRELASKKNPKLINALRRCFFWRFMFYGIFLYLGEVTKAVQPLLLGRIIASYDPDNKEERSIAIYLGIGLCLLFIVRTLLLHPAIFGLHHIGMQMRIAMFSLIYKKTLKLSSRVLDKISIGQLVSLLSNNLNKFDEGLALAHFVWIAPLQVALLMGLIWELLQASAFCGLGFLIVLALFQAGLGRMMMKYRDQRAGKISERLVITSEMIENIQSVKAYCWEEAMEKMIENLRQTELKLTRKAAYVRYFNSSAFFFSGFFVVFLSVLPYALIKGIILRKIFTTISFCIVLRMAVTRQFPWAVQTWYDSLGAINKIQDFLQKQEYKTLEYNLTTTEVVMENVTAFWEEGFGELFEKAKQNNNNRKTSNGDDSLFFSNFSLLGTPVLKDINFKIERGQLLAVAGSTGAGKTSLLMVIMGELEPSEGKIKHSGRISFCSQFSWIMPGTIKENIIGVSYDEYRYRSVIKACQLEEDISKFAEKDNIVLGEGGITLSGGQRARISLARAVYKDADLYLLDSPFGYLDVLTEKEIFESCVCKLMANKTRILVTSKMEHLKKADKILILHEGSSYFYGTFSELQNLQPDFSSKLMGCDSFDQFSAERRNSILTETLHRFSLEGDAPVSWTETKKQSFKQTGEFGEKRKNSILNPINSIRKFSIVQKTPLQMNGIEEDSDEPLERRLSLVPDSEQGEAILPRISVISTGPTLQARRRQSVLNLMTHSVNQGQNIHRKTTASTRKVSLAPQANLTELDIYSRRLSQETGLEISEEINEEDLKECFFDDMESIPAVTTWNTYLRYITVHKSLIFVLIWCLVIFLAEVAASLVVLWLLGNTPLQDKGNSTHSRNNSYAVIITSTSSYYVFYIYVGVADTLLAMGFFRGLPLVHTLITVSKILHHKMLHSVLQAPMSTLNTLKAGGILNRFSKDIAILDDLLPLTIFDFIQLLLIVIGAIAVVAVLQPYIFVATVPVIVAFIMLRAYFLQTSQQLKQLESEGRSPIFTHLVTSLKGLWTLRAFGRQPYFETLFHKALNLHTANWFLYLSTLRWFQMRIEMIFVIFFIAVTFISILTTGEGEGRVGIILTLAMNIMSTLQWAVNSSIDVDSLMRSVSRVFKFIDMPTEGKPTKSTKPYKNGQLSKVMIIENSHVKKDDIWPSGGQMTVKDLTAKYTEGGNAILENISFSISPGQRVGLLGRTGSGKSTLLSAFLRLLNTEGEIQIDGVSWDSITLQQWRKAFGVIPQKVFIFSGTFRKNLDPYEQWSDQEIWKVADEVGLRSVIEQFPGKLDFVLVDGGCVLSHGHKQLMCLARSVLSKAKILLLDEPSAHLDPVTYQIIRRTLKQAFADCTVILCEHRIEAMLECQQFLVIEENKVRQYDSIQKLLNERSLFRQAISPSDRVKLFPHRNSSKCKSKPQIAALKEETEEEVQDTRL

EC50 [1] | Emax [2] | Compound | other results
329 nM | 265% | CC(C)C[C@H]1C(=O)N(C)C2(CC2)C(=O)N[C@H](Cc2ccccc2)COc2cnc3ccccc3c2C(=O)N[C@H](C(=O)NCCc2cc(C3CC3)on2)CC(=O)N1C [Example 118, (3′S,7′S,13′R)-13′-benzyl-N-(2-(5-cyclopropylisoxazol-3-yl)ethyl)-7′-isobutyl-6′,9′-dimethyl-1′,5′,8′,11′-tetraoxo-2′,3′,4′,5′,6′,7′,8′,9′,11′,12′,13′,14′-dodecahydro-1′H-spiro[cyclopropane-1,10′-[1]oxa[4,7,10,14]tetraazacycloheptadecino[17,16-c]quinoline]-3′-carboxamide] | 
 |  | CC(C)C[C@H]1C(=O)N(CCC2CCCCC2)CC(=O)N[C@H](Cc2ccccc2)COc2ccc3ccccc3c2C(=O)N[C@H](C(=O)NCCc2ccc3c(c2)OCCC3)CC(=O)N1C [Example 599, (3S,7S,13R)-13-benzyl-N-(2-(chroman-7-yl)ethyl)-9-(2-cyclohexylethyl)-7-isobutyl-6-methyl-1,5,8,11-tetraoxo-1,2,3,4,5,6,7,8,9,10,11,12,13,14-tetradecahydronaphtho[1,2-p][1]oxa[4,7,10,14]tetraazacycloheptadecine-3-carboxamide] | EC50 [3]: 151 nM; Emax [4]: 299%
 |  | COc1nccc2c1C(=O)N[C@H](C(=O)NCCc1cccc(-n3nccn3)c1)CC(=O)N(C)[C@@H](CC(C)C)C(=O)N1CCCC[C@@H]1C(=O)N[C@H](Cc1ccccc1)CO2 [Example 466, (7S,11S,17aR,20R)-N-(3-(2H-1,2,3-triazol-2-yl)phenethyl)-20-benzyl-11-isobutyl-4-methoxy-10-methyl-5,9,12,18-tetraoxo-5,6,7,8,9,10,11,12,15,16,17,17a,18,19,20,21-hexadecahydro-14H-dipyrido[2,1-f:3′,4′-p][1]oxa[4,7,10,14]tetraazacycloheptadecine-7-carboxamide] | EC50 [3]: 548 nM; Emax [4]: 328%
 |  | CC(C)C[C@H]1C(=O)N(C)[C@H](CC(F)F)C(=O)N[C@H](Cc2ccccc2)COc2ccc3ncc(F)cc3c2C(=O)N[C@H](C(=O)NCCc2noc(C3CC3)n2)CC(=O)N1C [Example 801, (3S,7S,10R,13R)-13-benzyl-N-(2-(5-cyclopropyl-1,2,4-oxadiazol-3-yl)ethyl)-10-(2,2-difluoroethyl)-20-fluoro-7-isobutyl-6,9-dimethyl-1,5,8,11-tetraoxo-1,2,3,4,5,6,7,8,9,10,11,12,13,14-tetradecahydro-[1]oxa[4,7,10,14]tetraazacycloheptadecino[16,17-f]quinoline-3-carboxamide] | EC50 [5]: 149 nM; Emax [6]: 330%
250 nM | 137% | COc1cc2c(cc1OC)C(=O)N[C@H](C(=O)NCCc1ccc3c(c1)OCCCC3)CC(=O)N(C)[C@@H](CC(C)C)C(=O)N(C)CC(=O)N[C@H](Cc1ccccc1)CO2 [Example 161, (3R,9S,13S)-3-benzyl-9-isobutyl-17,18-dimethoxy-7,10-dimethyl-5,8,11,15-tetraoxo-N-(2-(2,3,4,5-tetrahydrobenzo[b]oxepin-8-yl)ethyl)-2,3,4,5,6,7,8,9,10,11,12,13,14,15-tetradecahydrobenzo[p][1]oxa[4,7,10,14]tetraazacycloheptadecine-13-carboxamide] | 
466 nM | 210% | COc1cc(CCNC(=O)[C@@H]2CC(=O)N(C)[C@@H](CC(C)C)C(=O)N3CCCC[C@@H]3C(=O)N[C@H](Cc3ccccc3)COc3cnc4ccccc4c3C(=O)N2)ccc1F [Example 91, (9S,13S,19aR,22R)-22-benzyl-N-(4-fluoro-3-methoxyphenethyl)-13-isobutyl-12-methyl-7,11,14,20-tetraoxo-7,8,9,10,11,12,13,14,17,18,19,19a,20,21,22,23-hexadecahydro-16H-pyrido[2′,1′:6,7][1]oxa[4,7,10,14]tetraazacycloheptadecino[17,16-c]quinoline-9-carboxamide] | 
 |  | CC(C)C[C@H]1C(=O)N(C)[C@H](Cc2nc(C(F)(F)F)no2)C(=O)N[C@H](Cc2ccccc2)COc2ccc3ncc(F)cc3c2C(=O)N[C@H](C(=O)NCCn2nnc(C3CC3)n2)CC(=O)N1C [Example 924, (3S,7S,10R,13R)-13-benzyl-N-(2-(5-cyclopropyl-2H-tetrazol-2-yl)ethyl)-20-fluoro-7-isobutyl-6,9-dimethyl-1,5,8,11-tetraoxo-10-((3-(trifluoromethyl)-1,2,4-oxadiazol-5-yl)methyl)-1,2,3,4,5,6,7,8,9,10,11,12,13,14-tetradecahydro-[1]oxa[4,7,10,14]tetraazacycloheptadecino[16,17-f]quinoline-3-carboxamide] | EC50 [5]: 33 nM; Emax [6]: 409%
1000 nM | 264% | COc1cccc(-c2noc(CCNC(=O)[C@@H]3CC(=O)N(C)[C@@H](CC(C)C)C(=O)N4CCOC[C@@H]4C(=O)N[C@H](Cc4ccccc4)COc4cnc5ccccc5c4C(=O)N3)n2)c1 [Example 130, (9S,13S,19aR,22R)-22-benzyl-13-isobutyl-N-(2-(3-(3-methoxyphenyl)-1,2,4-oxadiazol-5-yl)ethyl)-12-methyl-7,11,14,20-tetraoxo-7,8,9,10,11,12,13,14,16,17,19,19a,20,21,22,23-hexadecahydro-[1,4]oxazino[3′,4′:6,7][1]oxa[4,7,10,14]tetraazacycloheptadecino[17,16-c]quinoline-9-carboxamide] | 
91 nM | 333% | COc1cc(OC)c2c(c1)OC[C@@H](Cc1ccccc1)NC(=O)CN(CCC1CCCCC1)C(=O)[C@H](CC(C)C)N(C)C(=O)C[C@@H](C(=O)NCCc1ccc3c(c1)OCC3)NC2=O [Example 276, (3R,9S,13S)-3-benzyl-7-(2-cyclohexylethyl)-N-(2-(2,3-dihydrobenzofuran-6-yl)ethyl)-9-isobutyl-16,18-dimethoxy-10-methyl-5,8,11,15-tetraoxo-2,3,4,5,6,7,8,9,10,11,12,13,14,15-tetradecahydrobenzo[p][1]oxa[4,7,10,14]tetraazacycloheptadecine-13-carboxamide] | 
 |  | COc1noc(CCNC(=O)[C@@H]2CC(=O)N(C)[C@@H](CC(C)C)C(=O)N3CCCC[C@@H]3C(=O)N[C@H](Cc3ccccc3)COc3cc(C)c4ncccc4c3C(=O)N2)n1 [Example 920, (9S,13S,19aR,22R)-22-benzyl-13-isobutyl-N-(2-(3-methoxy-1,2,4-oxadiazol-5-yl)ethyl)-2,12-dimethyl-7,11,14,20-tetraoxo-7,8,9,10,11,12,13,14,17,18,19,19a,20,21,22,23-hexadecahydro-16H-pyrido[2′,1′:6,7][1]oxa[4,7,10,14]tetraazacycloheptadecino[16,17-f]quinoline-9-carboxamide] | EC50 [5]: 175 nM; Emax [6]: 380%
731 nM | 251% | COc1nccc2c1C(=O)N[C@H](C(=O)NCCn1cc(C3CC3)cn1)CC(=O)N(C)[C@@H](CC(C)C)C(=O)N1CCCC[C@@H]1C(=O)N[C@H](Cc1ccccc1)CO2 [Example 179, (7S,11S,17aR,20R)-20-benzyl-N-(2-(4-cyclopropyl-1H-pyrazol-1-yl)ethyl)-11-isobutyl-4-methoxy-10-methyl-5,9,12,18-tetraoxo-5,6,7,8,9,10,11,12,15,16,17,17a,18,19,20,21-hexadecahydro-14H-dipyrido[2,1-f:3′,4′-p][1]oxa[4,7,10,14]tetraazacycloheptadecine-7-carboxamide] | 
 |  | CC(C)C[C@H]1C(=O)N(C)[C@@H](Cc2nc(C(F)(F)F)no2)C(=O)N[C@H](Cc2ccccc2)COc2cnc3ccc(F)cc3c2C(=O)N[C@H](C(=O)NCCc2noc(C3CC3)n2)CC(=O)N1C [Example 812, (3S,7S,10S,13R)-13-benzyl-N-(2-(5-cyclopropyl-1,2,4-oxadiazol-3-yl)ethyl)-20-fluoro-7-isobutyl-6,9-dimethyl-1,5,8,11-tetraoxo-10-((3-(trifluoromethyl)-1,2,4-oxadiazol-5-yl)methyl)-1,2,3,4,5,6,7,8,9,10,11,12,13,14-tetradecahydro-[1]oxa[4,7,10,14]tetraazacycloheptadecino[17,16-c]quinoline-3-carboxamide] | EC50 [5]: 127 nM; Emax [6]: 280%
461 nM | 316% | Cc1cc(CCNC(=O)[C@@H]2CC(=O)N(C)[C@@H](CC(C)C)C(=O)N3CCN(C(C)C)C[C@@H]3C(=O)N[C@H](Cc3ccccc3)COc3cnc4ccccc4c3C(=O)N2)on1 [Example 375, (9S,13S,19aR,22R)-22-benzyl-13-isobutyl-18-isopropyl-12-methyl-N-(2-(3-methylisoxazol-5-yl)ethyl)-7,11,14,20-tetraoxo-7,8,9,10,11,12,13,14,17,18,19,19a,20,21,22,23-hexadecahydro-16H-pyrazino[2′,1′:6,7][1]oxa[4,7,10,14]tetraazacycloheptadecino[17,16-c]quinoline-9-carboxamide] | 

Compound | EC50 [1] | Emax [2] | other results
COc1cccc(CCNC(=O)[C@@H]2CC(=O)N(C)[C@@H](CC3CCC3)C(=O)N(CCC3CCCCC3)CC(=O)N[C@H](Cc3ccccc3)COc3ccc4ccccc4c3C(=O)N2)c1 (racemic) [Example 302, (3RS,7S,13R)-13-benzyl-7-(cyclobutylmethyl)-9-(2-cyclohexylethyl)-N-(3-methoxyphenethyl)-6-methyl-1,5,8,11-tetraoxo-1,2,3,4,5,6,7,8,9,10,11,12,13,14-tetradecahydronaphtho[1,2-p][1]oxa[4,7,10,14]tetraazacycloheptadecine-3-carboxamide] | 106 nM | 193% | 
Cc1ccccc1CCNC(=O)[C@@H]1CC(=O)N(C)[C@@H](CC(C)C)C(=O)N2CCOC[C@@H]2C(=O)N[C@H](Cc2ccccc2)COc2cnc3ccccc3c2C(=O)N1 [Example 64, (9S,13S,19aR,22R)-22-benzyl-13-isobutyl-12-methyl-N-(2-methylphenethyl)-7,11,14,20-tetraoxo-7,8,9,10,11,12,13,14,16,17,19,19a,20,21,22,23-hexadecahydro-[1,4]oxazino[3′,4′:6,7][1]oxa[4,7,10,14]tetraazacycloheptadecino[17,16-c]quinoline-9-carboxamide] | 441 nM | 143% | 
